Experimental data from PMC5430895 (Scientific Reports, 2017).

Columns and labels:
RASF [1] = assay: Saracatinib uptake in human RA synovial fibroblasts (HPLC-UV)
Description: The kinetic parameters Km and V max values were estimated by least-square nonlinear regression analysis using GraphPadPrism 5 software.
Unpaired student t-test was used for statistical analysis.
Cells were grown at standard conditions. Synovial fibroblasts (SF) were isolated from tissues of patients with rheumatoid arthritis (RA) (n = 8) obtained during joint replacement surgery after written informed consent was obtained. This procedure was approved by the Ethics Committee of the University of Münster, Germany; all methods were performed in accordance with the relevant guidelines and regulations. […] RA patients met the American College of Rheumatology criteria. Isolated fibroblasts were cultured under standard conditions for a maximum of eight passages. When indicated, RASF were incubated with 10 ng/ml TNFα (PeproTech, Hamburg, Germany). Cell number was evaluated with a CASEYTT cell counter (Roche Innovatis, Reutlingen, Germany).
(§1) After incubation, cells were washed with ice-cold PBS and hypoosmotic lysis was induced with 0.1% formic acid. […] The mobile phase consisted of (A) acetonitrile with 0.1% formic acid and (B) 0.1% formic acid and was delivered at 0.3 ml/min in a gradient program. After delivering 100% B for 3 min, a linear gradient to 100% A was applied within 7 min and maintained for 5 min. Thereafter, in order to re-equilibrate the column, a simple isocratic elution step with 100% eluent B was applied for at least 6 min. […] Separation was carried out on an Accucore C18 column equipped with a C18 guard column. The data were acquired by ChromQuest 5.0 chromatography software.

WT-HEK293 cells = assay: Saracatinib uptake in WT-HEK293 cells (HPLC-UV); details: WT-HEK293, 10 µM saracatinib, 10 min
hOCT1 = biological target: T1, hOCT1 (Homo sapiens, UniProt O15245); assay: Saracatinib uptake in hOCT1-overexpressing HEK293 cells (HPLC-UV); details: hOCT1-HEK293, 10 µM saracatinib, 10 min, difference of accumulation at 4 °C and 37 °C
T1 sequence (O15245 1-554): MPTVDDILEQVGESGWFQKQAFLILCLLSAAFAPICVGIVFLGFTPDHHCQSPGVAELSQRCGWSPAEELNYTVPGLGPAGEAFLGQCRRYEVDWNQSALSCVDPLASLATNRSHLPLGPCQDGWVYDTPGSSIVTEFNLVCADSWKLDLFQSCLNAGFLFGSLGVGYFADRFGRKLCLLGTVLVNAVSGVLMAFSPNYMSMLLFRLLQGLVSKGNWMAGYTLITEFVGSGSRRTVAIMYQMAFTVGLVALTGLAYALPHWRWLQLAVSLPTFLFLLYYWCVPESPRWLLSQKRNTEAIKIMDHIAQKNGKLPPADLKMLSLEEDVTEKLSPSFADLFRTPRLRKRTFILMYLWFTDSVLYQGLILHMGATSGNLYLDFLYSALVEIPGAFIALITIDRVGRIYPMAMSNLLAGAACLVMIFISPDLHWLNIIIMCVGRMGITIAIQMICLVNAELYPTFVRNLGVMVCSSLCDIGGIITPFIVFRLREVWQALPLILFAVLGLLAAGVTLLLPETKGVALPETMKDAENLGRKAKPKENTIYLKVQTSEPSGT

hOCTN1 [2] = biological target: T2, hOCTN1 (Homo sapiens, UniProt Q9H015); assay: Saracatinib uptake in hOCTN1-overexpressing HEK293 cells (HPLC-UV)
T2 sequence (Q9H015 1-551): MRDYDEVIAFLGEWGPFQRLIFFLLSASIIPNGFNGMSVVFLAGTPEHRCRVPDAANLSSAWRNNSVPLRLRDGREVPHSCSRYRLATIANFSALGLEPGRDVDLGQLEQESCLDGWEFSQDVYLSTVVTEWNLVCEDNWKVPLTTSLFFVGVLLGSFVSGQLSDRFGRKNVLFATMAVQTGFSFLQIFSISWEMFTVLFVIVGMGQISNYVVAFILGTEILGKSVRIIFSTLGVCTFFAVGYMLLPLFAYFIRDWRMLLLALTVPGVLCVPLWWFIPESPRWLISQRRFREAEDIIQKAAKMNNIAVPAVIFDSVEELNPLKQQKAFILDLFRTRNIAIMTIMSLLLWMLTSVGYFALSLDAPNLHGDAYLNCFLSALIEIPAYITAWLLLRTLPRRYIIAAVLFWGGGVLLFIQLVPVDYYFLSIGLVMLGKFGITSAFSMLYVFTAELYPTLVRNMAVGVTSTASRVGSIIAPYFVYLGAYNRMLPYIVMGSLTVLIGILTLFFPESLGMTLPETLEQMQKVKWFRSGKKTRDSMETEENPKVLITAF
Description: Twenty-four hours before starting experiments hOCTN1 expression was induced by 1 mg/l doxycycline (Sigma-Aldrich, Steinheim, Germany). Cells were grown at standard conditions. […] Cell number was evaluated with a CASEYTT cell counter (Roche Innovatis, Reutlingen, Germany).
as §1

RASF [3] = assay: PDGF-induced proliferation of cultured RASF (cell counting); type: cell-based, human; details: 18 h, PDGF 10 ng/ml
Description: Data are shown as mean ± SEM. […] Cells were grown at standard conditions. […] Cell number was evaluated with a […] cell counter (Roche Innovatis, Reutlingen, Germany).

hOCTN1 [4] = biological target: T2, hOCTN1; assay: Saracatinib uptake in RASF after hOCTN1 siRNA knockdown; type: in vitro ADME; set-up: expressed in transfected cells; host or cells: HEK293, expression induced with 1 mg/l doxycycline; details: RASF 24 h post-transfection with hOCTN1 siRNA
hOCTN2 = biological target: T3, hOCTN2 (Homo sapiens, UniProt O76082); assay: Saracatinib uptake in hOCTN2-expressing HEK293 cells (HPLC-UV); details: hOCTN2-HEK293, 10 µM saracatinib, 10 min; not significantly different from WT
T3 sequence (O76082 1-557): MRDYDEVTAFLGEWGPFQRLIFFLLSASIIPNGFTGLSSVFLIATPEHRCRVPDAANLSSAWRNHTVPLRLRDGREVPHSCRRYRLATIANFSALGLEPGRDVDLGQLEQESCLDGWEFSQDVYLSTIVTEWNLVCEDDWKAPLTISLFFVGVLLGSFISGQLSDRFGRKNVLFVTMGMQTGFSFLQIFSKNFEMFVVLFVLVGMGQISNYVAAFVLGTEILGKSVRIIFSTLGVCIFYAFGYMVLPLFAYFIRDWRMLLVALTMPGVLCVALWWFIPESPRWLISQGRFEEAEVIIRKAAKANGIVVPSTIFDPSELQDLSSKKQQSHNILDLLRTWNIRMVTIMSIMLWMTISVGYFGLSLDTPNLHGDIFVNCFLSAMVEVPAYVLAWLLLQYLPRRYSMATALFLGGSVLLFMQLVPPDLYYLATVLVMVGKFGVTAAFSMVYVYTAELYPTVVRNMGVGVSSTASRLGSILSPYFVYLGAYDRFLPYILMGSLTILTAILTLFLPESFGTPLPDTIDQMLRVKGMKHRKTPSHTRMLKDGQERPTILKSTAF

influence of extracellular pH on saracatinib uptake (RASF [1]; RASF): pH-dependent | Km (RASF [1]; read-out: Km of saracatinib uptake, RASF, 10 min incubation): 39.4 ± 9.4 µM | saracatinib accumulation (specific uptake) (WT-HEK293 cells): 1.8 ± 0.5 nmol/mg protein | saracatinib accumulation (specific uptake) (hOCT1): 8.8 ± 0.9 nmol/mg protein | saracatinib accumulation (specific uptake) (hOCTN1 [2]; hOCTN1-HEK293, 10 µM saracatinib, 10 min, difference of accumulation at 4 °C and 37 °C): 9.3 ± 1.6 nmol/mg protein | influence of extracellular pH on saracatinib uptake (hOCTN1 [2]; hOCTN1-HEK293 cells): pH dependent | time for which hOCTN1 mediated saracatinib accumulation is linear (hOCTN1 [2]; hOCTN1-HEK293 cells, 10 µM saracatinib): at least 15 min | maximum saracatinib uptake (Vmax) (hOCTN1 [2]; hOCTN1-HEK293 cells, 10 min incubation): 79.7 ± 5.2 nmol/mg protein | uptake of saracatinib (hOCTN1 [4]): 2.6 ± 0.8 nmol/mg protein | uptake of saracatinib, % remaining versus scramble siRNA (hOCTN1 [4]): 26% | saracatinib accumulation (specific uptake) (hOCTN2): 3.8 ± 1.7 nmol/mg protein
Compound: CN1CCN(CCOc2cc(OC3CCOCC3)c3c(Nc4c(Cl)ccc5c4OCO5)ncnc3c2)CC1 [saracatinib, N-(5-chloro-1,3-benzodioxol-4-yl)-7-[2-(4-methylpiperazin-1-yl)ethoxy]-5-(tetrahydro-2H-pyran-4-yloxy)quinazolin-4-amine]
increase of saracatinib uptake versus untreated controls (RASF [1]; RASF treated for 18 h with TNFα (10 ng/ml)): 36 ± 5% | saracatinib transport capacity (Vmax) (RASF [1]; RASF, 10 min incubation): 71.6 ± 4.1 nmol/mg protein/10 min | inhibition of PDGF-induced cell proliferation (RASF [3]; 0.1 µM saracatinib): Complete inhibition | inhibition of PDGF-induced cell proliferation (RASF [3]; 0.001–1 µM saracatinib): potent and dose-dependent inhibition
